Laboratory results: US20250144067A1, “PERSONALIZED STARVATION THERAPY FOR CANCER” (Faeth Therapeutics, Inc., priority 2021, published 2025)
Structures can show the parent of a compound that is named as a salt.

Key:
[1] = system: NCI-H292 lung cancer cells; assay: FDA drug screening, complete media vs cholesterol-free media with simvastatin (TABLE 2); assay type: cell-based, human; conditions: for Cholesterol-free media + simvastatin (0.04 μM) / Complete Media: NCI-H292 cells
[2] = system: NCI-H292 lung cancer cells; assay: FDA drug screening, complete media vs cholesterol-free media without statin (TABLE 1); assay type: cell-based, human
[3] = drug in cholesterol-free media with simvastatin 0.04 μM
[4] = complete media vs cholesterol-free media + simvastatin (0.04 μM), >0 enhanced anti-cancer activity, about 0 neutral, <0 antagonist
[5] = NCI-H292 cells, cholesterol-free media without statin
[6] = complete vs cholesterol-free media, greater than 0 enhanced anti-cancer activity, about 0 neutral, below 0 antagonists
[7] = FDA drug library screen, cholesterol-free media with simvastatin 0.04 μM
[8] = FDA drug library screen, complete media
[9] = Complete minus Cholesterol-free, >0 enhanced anti-cancer activity, about 0 neutral, <0 antagonist
[10] = NCI-H292 cells, cholesterol-free media without statin, FDA drug library screen
[11] = NCI-H292 cells, complete media, FDA drug library screen
[12] = complete media vs cholesterol-free media + simvastatin (0.04 μM), […]
[13] = Complete minus Cholesterol-free, […]
[14] = NCI-H292 cells in cholesterol-free media without statin
[15] = NCI-H292 cells in complete media
[16] = complete media minus cholesterol-free media + simvastatin, >0 enhanced anti-cancer activity, about 0 neutral, <0 antagonist
[17] = complete vs cholesterol-free media, >0 enhanced anti-cancer activity, about 0 neutral, <0 antagonist
[18] = cholesterol-free media with simvastatin 0.04 μM, cell growth value in FDA drug screen
[19] = complete media, cell growth value in FDA drug screen

**Q.** For `CNCCc1ccccn1` [Betahistine (dihydrochloride)], which “Cholesterol-free media + simvastatin (0.04 μM)” value [1, 3] is on record?
**A.** 1.02

**Q.** What about the “Complete Media” value ([1]; drug in complete media) of the same compound?
**A.** 0.8007

**Q.** What about the Difference [1, 4] of the same compound?
**A.** −0.22

**Q.** What about the Cholesterol-free [2, 5] of the same compound?
**A.** 1.528

**Q.** And the Complete ([2]; NCI-H292 cells, complete media)?
**A.** 1.139

**Q.** What about the Difference [2, 6] of the same compound?
**A.** −0.39

**Q.** For `NC(CO)C(=O)NNCc1ccc(O)c(O)c1O` (centres unmarked) [Benserazide (hydrochloride)], which “Cholesterol-free media + simvastatin (0.04 μM)” value [1, 7] is on record?
**A.** 1.132

**Q.** What about the “Complete Media” value [1, 8] of the same compound?
**A.** 1.052

**Q.** What about the Difference [1, 4] of the same compound?
**A.** −0.08

**Q.** What about the Difference [2, 9] of the same compound?
**A.** 0.01

**Q.** And the Cholesterol-free [2, 10]?
**A.** 1.039

**Q.** What about the Complete [2, 11] of the same compound?
**A.** 1.047

**Q.** With `COc1cc2c3cc1Oc1c(OC)c(OC)cc4c1[C@@H](Cc1ccc(O)c(c1)Oc1ccc(cc1)C[C@@H]3N(C)CC2)N(C)CC4` [berbamine, reference compound] as the compound, how does the “Cholesterol-free media + simvastatin (0.04 μM)” value ([1]; FDA drug library screen, cholesterol-free media with simvastatin 0.04 μM, listed as Berbamine) read?
**A.** 0.4924

**Q.** And the “Complete Media” value ([1]; FDA drug library screen, complete media, listed as Berbamine)?
**A.** 1.667

**Q.** And the Difference ([1]; complete media minus cholesterol-free media + simvastatin, […], listed as Berbamine)?
**A.** 1.17

**Q.** What about the Cholesterol-free ([2]; NCI-H292 cells, cholesterol-free media without statin, listed as Berbamine) of the same compound?
**A.** 1.275

**Q.** What about the Complete ([2]; NCI-H292 cells, complete media, listed as Berbamine) of the same compound?
**A.** 0.9674

**Q.** What about the Difference ([2]; complete vs cholesterol-free media, […], listed as Berbamine) of the same compound?
**A.** −0.31

**Q.** For `Cl.NCC(=O)CCC(=O)O` [5-Aminolevulinic acid (hydrochloride)], which “Cholesterol-free media + simvastatin (0.04 μM)” value [1, 7] is on record?
**A.** 1.091

**Q.** What about the “Complete Media” value [1, 8] of the same compound?
**A.** 1.01

**Q.** What about the Difference [1, 12] of the same compound?
**A.** −0.08

**Q.** What about the Difference [2, 13] of the same compound?
**A.** −0.75

**Q.** And the Cholesterol-free [2, 14]?
**A.** 1.604

**Q.** What about the Complete [2, 15] of the same compound?
**A.** 0.8558

**Q.** For `C[C@H](Oc1cc(-c2cnn(C3CCNCC3)c2)cnc1N)c1c(Cl)ccc(F)c1Cl` [(S)-Crizotinib], which “Cholesterol-free media + simvastatin (0.04 μM)” value [1, 7] is on record?
**A.** 1.094

**Q.** And the “Complete Media” value [1, 8]?
**A.** 0.9518

**Q.** And the Difference [1, 12]?
**A.** −0.14

**Q.** And the Difference [2, 13]?
**A.** 0.02

**Q.** And the Cholesterol-free [2, 10]?
**A.** 1.253

**Q.** What about the Complete [2, 11] of the same compound?
**A.** 1.275

**Q.** For `CCCCCOc1ccccc1/C(=C\SC)n1ccnc1` [Neticonazole (hydrochloride)], which “Complete Media” value [1, 8] is on record?
**A.** 0.9839

**Q.** What about the Difference [1, 16] of the same compound?
**A.** 0.45

**Q.** What about the Cholesterol-free [2, 5] of the same compound?
**A.** 1.192

**Q.** And the Complete ([2]; NCI-H292 cells, complete media)?
**A.** 0.8359

**Q.** And the Difference [2, 6]?
**A.** −0.36

**Q.** With `COc1ncnc(NS(=O)(=O)c2ccc(N)cc2)c1OC` [Sulfadoxine] as the compound, how does the “Cholesterol-free media + simvastatin (0.04 μM)” value ([1]; cholesterol-free media with simvastatin 0.04 μM, FDA drug library screen (TABLE 2)) read?
**A.** 1.1

**Q.** What about the “Complete Media” value ([1]; complete media, FDA drug library screen (TABLE 2)) of the same compound?
**A.** 1.093

**Q.** And the Difference ([1]; complete media minus cholesterol-free media + simvastatin (0.04 μM), >0 enhanced anti-cancer activity, about 0 neutral, <0 antagonist)?
**A.** −0.01

**Q.** And the Difference [2, 9]?
**A.** −0.27

**Q.** What about the Cholesterol-free [2, 5] of the same compound?
**A.** 1.26

**Q.** And the Complete ([2]; NCI-H292 cells, complete media)?
**A.** 0.986

**Q.** For `CC[C@]12CCCN3CCc4c(n(c5ccccc45)C(=O)C1)[C@@H]32` [Vinburnine], which “Cholesterol-free media + simvastatin (0.04 μM)” value [1, 7] is on record?
**A.** 1.049

**Q.** And the “Complete Media” value [1, 8]?
**A.** 1.235

**Q.** What about the Difference [1, 16] of the same compound?
**A.** 0.19

**Q.** And the Cholesterol-free [2, 10]?
**A.** 0.8229

**Q.** And the Complete [2, 11]?
**A.** 1.424

**Q.** What about the Difference [2, 17] of the same compound?
**A.** 0.60

**Q.** Which “Cholesterol-free media + simvastatin (0.04 μM)” value [1, 3] does the source give for `CC(C(=O)O)c1ccc(-c2ccccc2)c(F)c1` (centres unmarked) [Flurbiprofen] here?
**A.** 1.217

**Q.** What about the “Complete Media” value ([1]; drug in complete media) of the same compound?
**A.** 1.042

**Q.** What about the Difference [1, 4] of the same compound?
**A.** −0.18

**Q.** What about the Cholesterol-free [2, 10] of the same compound?
**A.** 1.072

**Q.** What about the Complete [2, 11] of the same compound?
**A.** 1.387

**Q.** What about the Difference [2, 17] of the same compound?
**A.** 0.31

**Q.** Which “Cholesterol-free media + simvastatin (0.04 μM)” value [1, 18] does the source give for `Cc1c(Cl)cccc1Nc1ccccc1C(=O)O` [Tolfenamic Acid] here?
**A.** 0.9725

**Q.** What about the “Complete Media” value [1, 19] of the same compound?
**A.** 0.9986

**Q.** What about the Difference [1, 16] of the same compound?
**A.** 0.03

**Q.** What about the Cholesterol-free [2, 5] of the same compound?
**A.** 1.332

**Q.** And the Complete ([2]; NCI-H292 cells, complete media)?
**A.** 0.9309

**Q.** And the Difference [2, 6]?
**A.** −0.40

**Q.** `CN(CCOc1ccc(NS(C)(=O)=O)cc1)CCc1ccc(NS(C)(=O)=O)cc1` [Dofetilide] was tested. Which “Cholesterol-free media + simvastatin (0.04 μM)” value [1, 7] did it give?
**A.** 0.6812

**Q.** What about the “Complete Media” value [1, 8] of the same compound?
**A.** 0.8394

**Q.** What about the Difference [1, 16] of the same compound?
**A.** 0.16

**Q.** What about the Difference ([2]; Complete minus Cholesterol-free, greater than 0 enhanced anti-cancer activity, about 0 neutral, below 0 antagonists) of the same compound?
**A.** −0.48

**Q.** And the Cholesterol-free [2, 14]?
**A.** 1.275

**Q.** And the Complete [2, 15]?
**A.** 0.7972

**Q.** For `CC(C)(C)C(=O)Oc1ccc(S(=O)(=O)Nc2ccccc2C(=O)NCC(=O)O)cc1` [Sivelestat], which “Cholesterol-free media + simvastatin (0.04 μM)” value [1, 18] is on record?
**A.** 0.7952

**Q.** What about the “Complete Media” value [1, 19] of the same compound?
**A.** 0.866

**Q.** And the Difference [1, 16]?
**A.** 0.07

**Q.** What about the Difference ([2]; Complete minus Cholesterol-free, greater than 0 enhanced anti-cancer activity, about 0 neutral, below 0 antagonist) of the same compound?
**A.** −0.16

**Q.** What about the Cholesterol-free ([2]; NCI-H292 cells, FDA drug library screen, cholesterol-free media without statin) of the same compound?
**A.** 1.175

**Q.** What about the Complete ([2]; NCI-H292 cells, FDA drug library screen, complete media) of the same compound?
**A.** 1.017
